# From ChEMBL document CHEMBL4043231, “Discovery of highly potent, selective, covalent inhibitors of JAK3” (Bioorg Med Chem Lett, 2017)
# Activity calls are given as the source filed them. No cut-off for these calls is given here.
# Legend:
# Blood = assay: Inhibition of IL2-induced IFNgamma production in human whole blood; type: functional
# T-cell = assay: Inhibition of IL-2 induced cell proliferation in human PBMC derived T cells pretreated for 60 mins followed by IL-2 addition measured after 3 days by [3H]thymidine incorporation assay; type: functional, cell-based
# [1] = biological target: T1, Tyrosine-protein kinase JAK3 (Homo sapiens, UniProt P52333); assay: Inhibition of JAK3 (unknown origin) using CSKtide as substrate after 30 mins in presence of [gamma32P]ATP by top-count liquid scintillation counting method
# T1 sequence (P52333 whole entry): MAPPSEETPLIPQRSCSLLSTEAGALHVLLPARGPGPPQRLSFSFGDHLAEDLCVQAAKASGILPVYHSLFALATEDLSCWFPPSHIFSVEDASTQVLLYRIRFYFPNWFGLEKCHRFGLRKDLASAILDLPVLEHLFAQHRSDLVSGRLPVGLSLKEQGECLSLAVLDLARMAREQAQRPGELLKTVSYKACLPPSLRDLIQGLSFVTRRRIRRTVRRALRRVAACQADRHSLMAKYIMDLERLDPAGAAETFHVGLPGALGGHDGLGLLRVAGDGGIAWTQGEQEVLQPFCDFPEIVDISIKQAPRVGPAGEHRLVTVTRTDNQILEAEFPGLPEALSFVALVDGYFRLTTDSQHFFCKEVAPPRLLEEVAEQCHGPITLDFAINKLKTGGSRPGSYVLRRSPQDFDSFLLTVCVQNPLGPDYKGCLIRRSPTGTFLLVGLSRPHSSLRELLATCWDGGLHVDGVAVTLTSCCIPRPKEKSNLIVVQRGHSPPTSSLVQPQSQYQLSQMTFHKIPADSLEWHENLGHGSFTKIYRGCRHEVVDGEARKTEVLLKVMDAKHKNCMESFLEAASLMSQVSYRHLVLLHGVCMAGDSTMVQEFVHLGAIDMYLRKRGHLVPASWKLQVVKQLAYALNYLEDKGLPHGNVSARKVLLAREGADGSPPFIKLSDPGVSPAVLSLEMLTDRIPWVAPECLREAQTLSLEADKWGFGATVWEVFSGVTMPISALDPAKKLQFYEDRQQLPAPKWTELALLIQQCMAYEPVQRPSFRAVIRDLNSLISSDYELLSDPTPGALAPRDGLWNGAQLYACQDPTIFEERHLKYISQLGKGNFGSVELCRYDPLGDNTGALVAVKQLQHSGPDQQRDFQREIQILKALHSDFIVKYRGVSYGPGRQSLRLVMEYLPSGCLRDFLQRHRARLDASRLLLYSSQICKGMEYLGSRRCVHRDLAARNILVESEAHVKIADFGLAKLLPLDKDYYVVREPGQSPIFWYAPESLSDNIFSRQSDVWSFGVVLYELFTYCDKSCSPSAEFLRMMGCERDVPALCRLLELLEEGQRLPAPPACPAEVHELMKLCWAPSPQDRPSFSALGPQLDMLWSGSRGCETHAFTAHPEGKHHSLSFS
# [2] = biological target: Tyrosine-protein kinase JAK1 (Homo sapiens, UniProt P23458); assay: Inhibition of GST-tagged JAK1 (unknown origin) using fluoresceinated peptide as substrate after 3 hrs by caliper assay
# Chain of Tyrosine-protein kinase JAK1 (P23458 whole entry): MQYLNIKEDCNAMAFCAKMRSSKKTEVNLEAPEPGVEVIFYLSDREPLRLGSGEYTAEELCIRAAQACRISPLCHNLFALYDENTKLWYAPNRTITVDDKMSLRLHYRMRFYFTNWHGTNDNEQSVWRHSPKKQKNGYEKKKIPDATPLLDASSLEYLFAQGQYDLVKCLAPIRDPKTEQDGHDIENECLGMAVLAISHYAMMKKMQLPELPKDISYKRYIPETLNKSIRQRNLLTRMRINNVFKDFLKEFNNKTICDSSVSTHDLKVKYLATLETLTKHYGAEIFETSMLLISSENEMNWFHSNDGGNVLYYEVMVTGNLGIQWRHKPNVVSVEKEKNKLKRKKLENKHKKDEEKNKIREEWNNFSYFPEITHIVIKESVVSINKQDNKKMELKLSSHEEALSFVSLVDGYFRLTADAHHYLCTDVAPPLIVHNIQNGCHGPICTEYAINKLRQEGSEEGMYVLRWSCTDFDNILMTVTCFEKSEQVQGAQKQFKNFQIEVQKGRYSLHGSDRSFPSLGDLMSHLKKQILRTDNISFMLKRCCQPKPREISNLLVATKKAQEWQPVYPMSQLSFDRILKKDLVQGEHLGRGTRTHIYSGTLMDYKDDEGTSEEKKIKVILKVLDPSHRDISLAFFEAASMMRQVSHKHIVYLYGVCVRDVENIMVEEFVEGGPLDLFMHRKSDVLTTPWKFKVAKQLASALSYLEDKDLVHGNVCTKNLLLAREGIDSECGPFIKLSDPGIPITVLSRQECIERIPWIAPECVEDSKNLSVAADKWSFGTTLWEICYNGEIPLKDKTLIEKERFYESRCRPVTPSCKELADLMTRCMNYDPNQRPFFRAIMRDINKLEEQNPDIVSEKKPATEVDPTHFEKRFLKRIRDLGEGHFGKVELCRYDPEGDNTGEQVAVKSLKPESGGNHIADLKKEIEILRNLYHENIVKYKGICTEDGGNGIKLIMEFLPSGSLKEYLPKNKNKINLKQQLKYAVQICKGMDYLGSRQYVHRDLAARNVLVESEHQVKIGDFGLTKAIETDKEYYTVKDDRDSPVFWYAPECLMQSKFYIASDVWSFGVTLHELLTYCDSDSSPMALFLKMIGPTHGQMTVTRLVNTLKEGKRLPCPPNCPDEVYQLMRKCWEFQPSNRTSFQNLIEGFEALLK
# [3] = biological target: Non-receptor tyrosine-protein kinase TYK2 (Homo sapiens, UniProt P29597); assay: Inhibition of His-tagged TYK2 (unknown origin) using fluoresceinated peptide as substrate after 3 hrs by caliper assay
# Chain of Non-receptor tyrosine-protein kinase TYK2 (P29597 whole entry): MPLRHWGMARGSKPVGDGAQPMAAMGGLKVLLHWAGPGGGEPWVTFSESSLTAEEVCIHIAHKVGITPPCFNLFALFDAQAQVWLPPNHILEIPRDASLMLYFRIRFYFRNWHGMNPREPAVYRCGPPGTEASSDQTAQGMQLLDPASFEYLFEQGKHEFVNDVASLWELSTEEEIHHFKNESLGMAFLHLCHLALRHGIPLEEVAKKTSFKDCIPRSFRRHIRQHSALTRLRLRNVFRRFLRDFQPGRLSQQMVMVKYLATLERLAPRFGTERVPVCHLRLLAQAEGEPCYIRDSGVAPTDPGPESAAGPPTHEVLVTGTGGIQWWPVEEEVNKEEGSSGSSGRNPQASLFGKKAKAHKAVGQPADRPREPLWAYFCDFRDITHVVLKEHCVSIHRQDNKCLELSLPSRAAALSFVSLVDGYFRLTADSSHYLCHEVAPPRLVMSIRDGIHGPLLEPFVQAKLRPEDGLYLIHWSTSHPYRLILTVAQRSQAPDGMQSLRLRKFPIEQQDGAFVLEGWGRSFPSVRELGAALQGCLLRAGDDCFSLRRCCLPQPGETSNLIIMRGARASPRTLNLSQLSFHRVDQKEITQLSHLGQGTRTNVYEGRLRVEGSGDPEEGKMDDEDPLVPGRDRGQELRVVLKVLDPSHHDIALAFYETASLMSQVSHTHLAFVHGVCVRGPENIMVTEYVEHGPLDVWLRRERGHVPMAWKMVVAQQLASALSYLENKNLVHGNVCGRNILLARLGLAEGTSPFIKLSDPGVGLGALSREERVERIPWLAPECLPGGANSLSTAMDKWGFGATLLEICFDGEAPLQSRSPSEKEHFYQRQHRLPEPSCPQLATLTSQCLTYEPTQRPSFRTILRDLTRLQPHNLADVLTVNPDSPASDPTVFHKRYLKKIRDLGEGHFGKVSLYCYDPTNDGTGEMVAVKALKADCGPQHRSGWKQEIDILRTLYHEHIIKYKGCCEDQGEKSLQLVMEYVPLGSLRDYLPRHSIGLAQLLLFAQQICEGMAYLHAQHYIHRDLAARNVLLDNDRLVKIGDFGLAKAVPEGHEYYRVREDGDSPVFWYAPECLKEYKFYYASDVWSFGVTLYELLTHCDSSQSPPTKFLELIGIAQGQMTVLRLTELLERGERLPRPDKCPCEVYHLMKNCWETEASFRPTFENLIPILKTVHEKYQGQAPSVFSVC
# [4] = biological target: T2, Tyrosine-protein kinase JAK2 (Homo sapiens, UniProt O60674); assay: Inhibition of GST-tagged JAK2 (unknown origin) using fluoresceinated peptide as substrate after 3 hrs by caliper assay
# T2 sequence (O60674 whole entry): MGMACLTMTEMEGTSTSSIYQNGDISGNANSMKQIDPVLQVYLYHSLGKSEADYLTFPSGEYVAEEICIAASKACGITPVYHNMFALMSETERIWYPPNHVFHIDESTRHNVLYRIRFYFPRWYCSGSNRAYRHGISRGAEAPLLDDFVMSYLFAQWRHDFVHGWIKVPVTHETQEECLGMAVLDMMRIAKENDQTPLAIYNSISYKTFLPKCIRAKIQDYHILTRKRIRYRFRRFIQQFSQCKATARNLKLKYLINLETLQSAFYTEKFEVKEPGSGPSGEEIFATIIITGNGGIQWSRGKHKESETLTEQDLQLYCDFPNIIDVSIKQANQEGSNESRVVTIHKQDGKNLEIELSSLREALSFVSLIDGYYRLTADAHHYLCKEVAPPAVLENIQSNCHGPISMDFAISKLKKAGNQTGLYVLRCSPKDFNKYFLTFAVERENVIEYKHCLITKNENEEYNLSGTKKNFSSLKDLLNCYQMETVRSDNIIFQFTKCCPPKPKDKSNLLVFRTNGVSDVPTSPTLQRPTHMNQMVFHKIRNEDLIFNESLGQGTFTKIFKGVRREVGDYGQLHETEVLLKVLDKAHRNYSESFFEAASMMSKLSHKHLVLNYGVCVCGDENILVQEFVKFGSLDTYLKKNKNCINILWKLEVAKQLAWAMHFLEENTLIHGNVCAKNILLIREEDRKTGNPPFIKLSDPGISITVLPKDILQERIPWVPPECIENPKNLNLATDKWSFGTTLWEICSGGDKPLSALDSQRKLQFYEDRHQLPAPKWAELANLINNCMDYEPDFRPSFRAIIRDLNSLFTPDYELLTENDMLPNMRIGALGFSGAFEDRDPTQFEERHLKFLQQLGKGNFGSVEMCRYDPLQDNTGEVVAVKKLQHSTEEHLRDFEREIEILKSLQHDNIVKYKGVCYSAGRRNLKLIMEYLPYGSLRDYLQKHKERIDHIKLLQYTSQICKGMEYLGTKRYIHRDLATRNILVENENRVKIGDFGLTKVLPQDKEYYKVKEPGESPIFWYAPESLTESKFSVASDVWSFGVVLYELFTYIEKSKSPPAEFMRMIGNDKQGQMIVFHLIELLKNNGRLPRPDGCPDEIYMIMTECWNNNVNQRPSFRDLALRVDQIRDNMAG
# [5] = biological target: T3, Tyrosine-protein kinase JAK3 (Homo sapiens) (UniProt P52333); assay: Inhibition of JAK3 (unknown origin) using CSKtide as substrate pretreated measured after 30 mins in presence of [gamma32P]ATP by top-count liquid scintillation counting method
# T3 sequence (whole entry): T1 sequence (P52333 whole entry)
# JAK1/TYK2 = JAK1/TYK2 (Homo sapiens, UniProt P23458+P29597); assay: Inhibition of JAK1/TYK2 in human PBMC derived T cell assessed as reduction in IFNa2a-induced STAT3 phosphorylation after 30 mins by ELISA; type: protein-complex assay
# [6] = biological target: T4, Tyrosine-protein kinase BTK (Homo sapiens, UniProt Q06187); assay: Inhibition of full length human His-tagged BTK expressed in baculovirus expression system using GEEPLYWSFPAKKK-NH2 as substrate pretreated for 120 mins followed by ATP addition measured after 10 mins by topcount scintillation counting analysis
# T4 sequence (Q06187 whole entry): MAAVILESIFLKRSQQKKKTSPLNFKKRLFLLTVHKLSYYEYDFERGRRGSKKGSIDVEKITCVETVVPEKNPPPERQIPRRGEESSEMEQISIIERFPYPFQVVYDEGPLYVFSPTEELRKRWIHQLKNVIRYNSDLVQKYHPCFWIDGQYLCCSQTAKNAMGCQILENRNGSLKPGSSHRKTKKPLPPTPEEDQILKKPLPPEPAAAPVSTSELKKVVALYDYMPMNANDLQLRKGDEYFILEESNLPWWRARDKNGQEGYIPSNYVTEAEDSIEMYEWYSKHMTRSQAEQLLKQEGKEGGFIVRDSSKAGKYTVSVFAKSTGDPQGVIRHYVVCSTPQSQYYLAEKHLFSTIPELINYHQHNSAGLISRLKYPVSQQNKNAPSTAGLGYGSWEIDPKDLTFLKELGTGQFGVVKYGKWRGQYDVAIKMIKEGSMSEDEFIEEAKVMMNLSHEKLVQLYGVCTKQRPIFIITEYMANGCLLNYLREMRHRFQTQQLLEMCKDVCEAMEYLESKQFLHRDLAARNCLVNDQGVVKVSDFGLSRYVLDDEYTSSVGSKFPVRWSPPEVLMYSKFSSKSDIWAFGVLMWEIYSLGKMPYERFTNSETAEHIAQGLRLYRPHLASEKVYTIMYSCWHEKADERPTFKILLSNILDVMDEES
# [7] = biological target: T3, Tyrosine-protein kinase JAK3 (Homo sapiens)
# Description: Time-dependent inhibition of JAK3 (unknown origin) using CSKtide as substrate in presence of [gamma32P]ATP by top-count liquid scintillation counting method
# [8] = biological target: Epidermal growth factor receptor (Homo sapiens, UniProt P00533); assay: Inhibition of EGFR (unknown origin) by caliper assay
# [9] = biological target: T4, Tyrosine-protein kinase BTK; assay: Time-dependent inhibition of full length human His-tagged BTK expressed in baculovirus expression system using GEEPLYWSFPAKKK-NH2 as substrate by topcount scintillation counting analysis
# JAK3/JAK1 = JAK3/JAK1 (Homo sapiens, UniProt P23458+P52333); assay: Inhibition of JAK1/JAK3 in human PBMC derived T cell assessed as reduction in IL2-induced STAT3 phosphorylation after 30 mins by ELISA; type: protein-complex assay
# [10] = biological target: T4, Tyrosine-protein kinase BTK; assay: Inhibition of full length human His-tagged BTK expressed in baculovirus expression system using GEEPLYWSFPAKKK-NH2 as substrate pretreated for 45 mins followed by ATP addition measured after 10 mins by topcount scintillation counting analysis
# [11] = biological target: T2, Tyrosine-protein kinase JAK2; assay: Inhibition of JAK2 in human TF1 cells assessed as reduction in EPO-induced STAT5A phosphorylation pretreated for 30 mins followed by EPO addition measured after 10 mins by ELISA; type: cell-based
# [12] = biological target: T4, Tyrosine-protein kinase BTK; assay: Inhibition of BTK in goat anti-human IgM F(ab')2-stimulated human whole blood assessed as suppression of BCR-induced CD69 expression on B cells after 18 hrs by FACS analysis
# [13] = Bioavailability in mouse; type: ADME, organism-based; conditions: in vivo
# [14] = biological target: T4, Tyrosine-protein kinase BTK; assay: Inhibition of full length human His-tagged BTK expressed in baculovirus expression system using GEEPLYWSFPAKKK-NH2 as substrate measured immediately in presence of ATP by topcount scintillation counting analysis
# [15] = biological target: T4, Tyrosine-protein kinase BTK; assay: Inhibition of full length human His-tagged BTK expressed in baculovirus expression system using GEEPLYWSFPAKKK-NH2 as substrate measured after 10 mins in presence of ATP by topcount scintillation counting analysis
# [16] = biological target: T4, Tyrosine-protein kinase BTK; assay: Inhibition of full length human His-tagged BTK expressed in baculovirus expression system using GEEPLYWSFPAKKK-NH2 as substrate pretreated for 15 mins followed by ATP addition measured after 10 mins by topcount scintillation counting analysis
# [17] = biological target: Macrophage colony-stimulating factor 1 receptor (Homo sapiens, UniProt P07333); assay: Inhibition of FMS (unknown origin) by caliper assay
# Chain of Macrophage colony-stimulating factor 1 receptor (P07333 whole entry): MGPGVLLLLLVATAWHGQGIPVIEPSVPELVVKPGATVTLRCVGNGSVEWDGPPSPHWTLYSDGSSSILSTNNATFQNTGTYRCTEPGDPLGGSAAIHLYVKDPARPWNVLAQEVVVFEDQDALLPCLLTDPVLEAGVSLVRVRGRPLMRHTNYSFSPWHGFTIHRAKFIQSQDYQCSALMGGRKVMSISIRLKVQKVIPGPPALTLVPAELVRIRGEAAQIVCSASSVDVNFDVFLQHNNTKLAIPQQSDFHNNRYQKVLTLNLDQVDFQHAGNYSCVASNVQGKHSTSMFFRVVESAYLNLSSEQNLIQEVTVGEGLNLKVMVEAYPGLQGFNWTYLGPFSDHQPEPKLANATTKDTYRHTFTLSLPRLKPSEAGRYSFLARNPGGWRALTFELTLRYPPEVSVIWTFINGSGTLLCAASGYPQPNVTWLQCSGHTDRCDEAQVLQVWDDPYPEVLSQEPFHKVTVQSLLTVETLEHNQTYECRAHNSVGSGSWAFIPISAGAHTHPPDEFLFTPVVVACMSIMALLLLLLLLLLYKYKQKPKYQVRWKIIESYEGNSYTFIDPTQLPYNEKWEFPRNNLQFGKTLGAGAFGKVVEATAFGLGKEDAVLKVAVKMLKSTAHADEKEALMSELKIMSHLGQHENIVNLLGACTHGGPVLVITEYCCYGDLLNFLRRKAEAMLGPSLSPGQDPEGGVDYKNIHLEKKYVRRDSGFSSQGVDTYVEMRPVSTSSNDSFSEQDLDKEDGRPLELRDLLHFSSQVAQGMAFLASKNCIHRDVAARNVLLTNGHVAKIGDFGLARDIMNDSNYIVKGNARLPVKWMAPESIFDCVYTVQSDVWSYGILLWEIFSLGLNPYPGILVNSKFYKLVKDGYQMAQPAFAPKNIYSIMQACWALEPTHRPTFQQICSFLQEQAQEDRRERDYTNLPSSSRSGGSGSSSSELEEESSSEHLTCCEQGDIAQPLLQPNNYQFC
IC50 [1] [nM],IC50 [2] [nM],IC50 [3] [nM],IC50 [4] [nM],SMILES,IC50 (T-cell) [nM],other results
1.3,1700,> 2000,> 2000,C=CC(=O)Nc1cccc(CNc2c(C(N)=O)cnn3cccc23)c1,55,IC50 (Blood): 2300 nM
175,1420,> 2000,> 2000,C/C=C/C(=O)Nc1cccc(CNc2c(C(N)=O)cnn3cccc23)c1,26600,–
14,214,118,438,NC(=O)c1cnn2cc(-c3ccccc3)cc2c1NCc1ccccc1,–,–
35,264,2000,658,N#CCC(=O)Nc1cccc(CNc2c(C(N)=O)cnn3cccc23)c1,8450,–
100,–,–,–,CCC(=O)Nc1cccc(CNc2cc(Nc3ccccc3)ncc2C(N)=O)c1,–,inhibition [5]: Active
30,196,240,745,NC(=O)c1cnn2cccc2c1NCc1cccc(NC(=O)Cn2sc3ccccc3c2=O)c1,5480,–
< 1,1100,> 5000,1300,C=CC(=O)Nc1cccc(CNc2cc(Nc3ccccc3)ncc2C(N)=O)c1,22,IC50 (JAK1/TYK2): 4900 nM; IC50 (Blood): 490 nM; EC50 [6]: 1580 nM; TDI [7]: Active; IC50 [8]: > 10000 nM; TDI [9]: Active; IC50 (JAK3/JAK1): 51 nM; EC50 [10]: 2890 nM; IC50 [11]: 11000 nM; IC50 [12]: > 10000 nM; bioavailability [13]: < 30%; EC50 [14]: 19800 nM; IC50 [15]: > 2500 nM; EC50 [16]: 6560 nM; IC50 [17]: 180 nM
743,> 2000,> 2000,> 2000,NC(=O)c1cnn2cccc2c1NCc1cccc(NC(=O)COc2c(F)c(F)c(F)c(F)c2F)c1,15400,–
3.5,974,> 2000,1270,C=CS(=O)(=O)Nc1cccc(CNc2c(C(N)=O)cnn3cccc23)c1,6700,–
–,219,774,203,NC(=O)c1cnc(Nc2ccccc2)cc1NCc1ccccc1,–,–
942,> 2000,> 2000,> 2000,CN(C)/C=C(/C#N)C(=O)Nc1cccc(CNc2c(C(N)=O)cnn3cccc23)c1,14400,–
